Measured values as given in patent US11098081B2, “Epitope tag and method for detection and/or purification of tagged polypeptides” (ChromoTek GmbH, priority 2015, dated 2021).
Ends that are not written are not given here.

What was measured:
[1] = tested on: BC2-Nb; assay: Biolayer interferometry of immobilised biotinylated BC2T peptides with BC2-Nb; format: binding, Vicugna pacos; settings: for kon (M^−1s^−1): association rate constant; for Kd: biotinylated peptide on Streptavidin biosensor, BC2-Nb 5-50 nM, 1:1 binding model; for koff (s^−1): dissociation rate constant
Experimental: Biolayer interferometry (BLI)-based affinity measurements were used to assess two improved variations of the original BC2T sequence (a: […], pTag1 SEQ ID NO:33, b. […], pTag2 SEQ ID NO:34) in comparison with the original BC2T sequence (c: BC2T SEQ ID NO:4) BC2T and improved variations thereof were synthesized as peptides with an N-terminal biotin attached through an ethylene glycol linker and immobilised on Streptavidin biosensors. Binding kinetics were analysed by incubating immobilised peptides with 4-5 concentrations of BC2-Nb (5-50 nM) and evaluated using a 1:1 binding model.
Listed are the dissociation constant (KD), the association […] and dissociation (koff) rate constants and markers of the quality of fit of a 1:1 binding model (χ^2, R^2). The constants reported for original BC2T differ from those listed in Table 1 because kinetics were analysed using a different method.
The affinity measurements of BC2-Nb to BC2T and improved variations pTag1 and pTag2 were performed using biolayer interferometry using a BLItz system instrument (fortéBIO). Biotinylated peptide of BC2T and its variations were immobilised on Streptavidin biosensors (fortéBIO). The loaded sensor was sequentially dipped into BLItz buffer (phosphate buffered saline, 0.1% (m/v) BSA, 0.02% (v/v) Tween20) for 120 s to determine base line signal, in a solution of BC2-Nb in BLItz buffer (concentration of 5-50 nM) for 120 s to determine association and in BLItz buffer for 600 s to determine dissociation. The shaking rate was 1200 rpm. As a reference, each peptide was also incubated with BLItz buffer only according to the protocol above. In a control experiment, Streptavidin biosensors were incubated with BC2-Nb without prior peptide immobilisation. The sensor was regenerated by sequential dips into 10 mM glycine pH 2.0 and BLItz buffer (repeated three times). Raw data were analysed using the software BLItz Pro (fortéBio) and a 1:1 binding model.

[2] = tested on: BC2 nanotrap; assay: Immunoprecipitation of BC2-tagged proteins from HEK293T cell lysates with the BC2 nanotrap; format: binding; settings: soluble protein fraction of HEK293T cells, immunoblot
Experimental: (d) The BC2 nanotrap binds BC2-tagged proteins from human cell lysates irrespectively whether the BC2 tag is located at the N- or the C-terminus. For immunoprecipitation of BC2-tagged proteins soluble protein fractions of HEK293T cells expressing BC2TeGFP, eGFPBC2T or solely eGFP were incubated with the BC2 nanotrap as described in (a). Input (I), non-bound (NB) and bound fractions (B) were separated by SDS-PAGE and visualized either by Coomassie Blue staining (top) or immunoblot analysis (bottom).
(a) For immunoprecipitation soluble protein fractions of HEK293T cells either expressing eGFP-PCNA (control) or BC2-tagged eGFP-PCNA (eGFP-PCNABC2T) (left panel) or mCherry-Vimentin (mCherry-VIM, control) or BC2-lagged mCherry-VIM (mCherry-VIMBC2T) were incubated with the BC2 nanotrap. Input (I), non-bound (NB) and bound fractions (B) were separated by SDS-PAGE and visualized either by immunoblot analysis using anti-PCNA or anti-Vimentin antibodies (upper panel). As loading control, blots were probed with an anti-GAPDH antibody (lower panel).
The BC2-capture system was further analyzed for one-step purification of recombinant proteins derived from human cells Specifically, it was investigated whether the terminal position of the BC2-tag has an impact on binding. […]
Next, it was tested whether the BC2 nanotrap can precipitate BC2-tagged cellular components of the intermediate filaments or the nuclear replication machinery BC2T was genetically fused either to mCherry-vimentin (mCherry-VIMBC2T) or eGFP-PCNA (eGFP-PCNABC2T) and both constructs were expressed in HEK293T cells. […] Soluble protein extracts were incubated with the BC2 nanotrap and whole lysate (input), non-bound and bound fractions were analyzed by immunoblotting using anti-vimentin or anti-PCNA antibodies. […]
HEK293T cells transiently expressing eGFP, eGFPBC2T or BC2TeGFP, eGFP-PCNA, eGFP-PCNABC2T, mCherry-Vimentin, mCherry-VimentinBC2T were washed and harvested in phosphate buffered saline (PBS), snap-frozen in liquid nitrogen and stored at −20° C. Cell pellets were homogenized in 200 μl lysis buffer (10 mM Tris/Cl pH 7.3, 150 mM NaCl, 0.5% NP40, 1 μg DNaseI, 2 mM MgCl2, 2 mM PMSF, 1× protease inhibitor mix M (Serva) by repealed pipetting for 40 min on ice. After a centrifugation step (10 min at 18.000×g) the protein concentration of each lysate was determined using a Pierce BCA Protein Assay Kit (Thermo Fisher Scientific) according to manufacturer's protocol and the protein solutions were adjusted with dilution buffer (10 mM Tris/Cl pH 7.5, 150 mM NaCl, 2 mM PMSF) to a concentration of 1 mg/ml, 2% of the supernatant were added to SDS-containing sample buffer (referred to as input). […] Samples were analyzed by SDS-PAGE followed by immunoblotting. […]

[3] = tested on: BC2 nanotrap; assay: Immunoprecipitation of BC2-tagged GFP from E. coli lysate with the BC2 nanotrap; format: binding; settings: soluble protein fraction of E. coli, SDS-PAGE, Coomassie and/or anti-GFP immunoblot
[4] = tested on: BC2 nanotrap; assay: Elution of bound BC2-tagged protein from the BC2 nanotrap; format: binding; settings: for GFPBC2T detected in elution fraction: competitive elution
Experimental: […] Aliquots of released (R) and bound (B) fractions were analyzed by immunoblotting with an anti-GFP antibody.
For the elution experiments 40 μl of BC2 nanotrap (slurry) were incubated with 400 μl soluble protein extract (c=1 mg/ml) derived from E. coli cells expressing GFPBC2T for 1 h at 4° C. on an end-over-end rotor. After a centrifugation step (2500×g, 4° C., 2 min) the supernatant was discarded and the beads were washed four times in ice-cold PBS including a cup change after the second washing step. Subsequently, beads were pelleted and incubated with 80 μl of the indicated elution conditions for 15 min at RT. […] 0.1 mM or 1 mM BC2-peptide dissolved in 0.2 M Tris/Cl pH 7.4, 150 mM NaCl; acidic elution: 0.2 M Glycine-HCl adjusted to pH 1. pH 2 or pH 3; alkaline elution: 0 mM. 1 mM, 10 mM or 100 mM NaOH; elution with sodium thiocyanate. 0 M, 1 M, 2 M, or 3 M NaSCN. The eluates were collected and boiled in 1×SDS containing sample buffer and the remaining beads were washed twice in PBS before boiling in 40 μl 2× sample buffer. 10% of each elution (release, R) and bead bound (bound, B) fraction were analyzed by SDS-PAGE and immunoblotting using an anti-GFP antibody.

BC2-Nb, sequence (as listed by the source): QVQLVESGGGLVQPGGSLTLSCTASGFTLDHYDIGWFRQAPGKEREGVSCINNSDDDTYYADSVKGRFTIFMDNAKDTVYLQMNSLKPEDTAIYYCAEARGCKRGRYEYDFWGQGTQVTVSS
BC2 nanotrap, sequence (as listed by the source): as above

ADRVRAVSHWSS [pTag2]
kon (M^−1s^−1) [1]: 1.1 ± 0.1 × 10^5 M^−1s^−1
Kd [1]: 1.9 nM
koff (s^−1) [1]: 2.0 ± 0.1 × 10^−4 s^−1

BC2TeGFP: modified GFP comprising the BC2-tag on the N-terminus, expressed in HEK293T cells (PDRKAAVSHWQQ-eGFP; also: BC2 tag fused to the N-terminus of eGFP)
precipitation by the BC2 nanotrap from HEK293T lysate [2]: efficiently precipitated

GFPBC2T-8: GFP C-terminally fused to BC2T-8 ({GFP}-RKAAVSHW; also: BC2T-8 tag fused to the C-terminus of GFP)
precipitation by the BC2 nanotrap from E. coli lysate [3]: in a comparable manner as GFP tagged with the original BC2T

GFPBC2T-10: GFP C-terminally fused to BC2T-10 ({GFP}-PDRKAAVSHW; also: BC2T-10 tag fused to the C-terminus of GFP)
precipitation by the BC2 nanotrap from E. coli lysate [3]: in a comparable manner as GFP tagged with the original BC2T

GFPBC2T: GFP with a C-terminal BC2 tag, expressed in E. coli
precipitation by the BC2 nanotrap from E. coli lysate [3]: quantitatively precipitates
elution with MgCl2 ([4]; MgCl2 0.5 M-4 M, data not shown): does not elute
release of bound protein ([4]; alkaline elution, pH 11 and 12): 40-80%

PDRKAAVSHW (Epitope peptide 10 aa) [BC2T-10]
precipitation by the BC2 nanotrap from E. coli lysate [3]: efficiently recognized

PDRKAAVSHWQQ [BC2T]
kon (M^−1s^−1) [1]: 1.9 ± 0.1 × 10^5 M^−1s^−1
Kd [1]: 2.6 nM
koff (s^−1) [1]: 5.0 ± 0.1 × 10^−4 s^−1
GFPBC2T detected in elution fraction ([4]; 0.1 mM BC2 peptide): ~60%
GFPBC2T detected in elution fraction ([4]; 1 mM BC2 peptide): ~80%

PDRVRAVSHWSS [pTag1]
dissociation rate constant koff slower than for original BC2T [1]: 7 ×
kon (M^−1s^−1) [1]: 9.2 ± 0.5 × 10^4 M^−1s^−1
Kd [1]: 0.7 nM
koff (s^−1) [1]: 6.8 ± 0.4 × 10^−5 s^−1

RKAAVSHW (Epitope peptide 8 aa) [BC2T-8]
precipitation by the BC2 nanotrap from E. coli lysate [3]: efficiently recognized

eGFP-PCNABC2T: BC2T genetically fused to the C-terminus of eGFP-PCNA
precipitation by the BC2 nanotrap from HEK293T lysate [2]: efficiently precipitated

eGFPBC2T: modified GFP comprising the BC2-tag on the C-terminus, expressed in HEK293T cells (eGFP-PDRKAAVSHWQQ; also: BC2 tag fused to the C-terminus of eGFP)
precipitation by the BC2 nanotrap from HEK293T lysate [2]: efficiently precipitated

mCherry-VIMBC2T: BC2T genetically fused to the C-terminus of mCherry-Vimentin
precipitation by the BC2 nanotrap from HEK293T lysate [2]: efficiently precipitated
